Assay results as given in patent US20070072810A1, “Agent for treating diabetes” (Takeda Pharmaceutical Company, Limited, priority 2003, published 2007).

Legend:
[1] = tested on: N-STZ-1.5 rat (model of type 2 diabetes with sulfonylurea secondary failure); assay: Oral glucose loading in N-STZ-1.5 rats with sulfonylurea secondary failure (Experimental Example 1); type: in vivo; conditions: for Increment of plasma insulin level: rats pretreated with glibenclamide for 4 weeks; for plasma glucose level-lowering effect (in words) / plasma insulin level-elevating effect (in words): type 2 diabetic rat with sulfonylurea secondary failure; for plasma glucose level-lowering effect (in words): summary of Table 1; for plasma insulin level-elevating effect (in words): summary of Table 2 and Table 3
Method: (§1) Streptozocin (STZ) (120 mg/kg bodyweight) was administered to a 1.5-day-old male WKY rat to obtain a type 2 diabetes model, N-STZ-1.5 rat.
N-STZ-1.5 rats (male, 24 animals) received orally glibenclamide (10 mg/kg bodyweight/day) for 4 weeks to become a model of type 2 diabetes with sulfonylurea secondary failure. Then, the rats were divided into 4 groups of Groups A to D (6 animals each).
Then, each rat received orally 1 g/kg bodyweight of glucose solution. Before administration of glucose (before and after administration of the test compound) and 10 and 60 minutes after administration of glucose solution, blood samples were taken from the caudal vein of the rat and then the plasma glucose level and the plasma insulin level were determined.
The plasma glucose level was determined by an enzymatic method using L type WakoGlu2 (trade name, Wako Pure Chemical Industries, Ltd.), and the plasma insulin level was determined by radioimmunoassay using Shionoria Insulin Kit (trade name, Shionogi & Co., Ltd.).
The increment of plasma glucose level 60 minutes after administration of glucose solution (from 0 to 60 minutes after sugar loading); the increment of plasma insulin level 10 minutes after administration of glucose solution (from before administration of the test compound to 10 minutes after sugar loading); and the increment of plasma insulin level 10 minutes after administration of glucose solution (from 0 to 60 minutes after sugar loading) are shown in Table 1, Table 2 and Table 3, respectively. The values in the tables are mean values (n=6).

[2] = tested on: N-STZ-1.5 rat (type 2 diabetes model); assay: Oral glucose loading in N-STZ-1.5 rats after 4 weeks of methylcellulose (Group M) or glibenclamide (Group G) (Experimental Example 2); type: in vivo; conditions: for Increment of plasma insulin level / Increment of plasma glucose level: oral glibenclamide 10 mg/kg, mean, n=6; for Increment of plasma insulin level: 10 minutes after oral glucose 1 g/kg (from 0 to 60 minutes after sugar loading); for Increment of plasma glucose level: 60 minutes after oral glucose 1 g/kg; for plasma glucose level-lowering effect (in words): summary of Table 4; for plasma insulin level-elevating effect (in words): summary of Table 5
Method: as §1
N-STZ-1.5 rats (male, 24 animals) prepared in Experimental Example 1 were divided into 4 groups (6 animals each), of which 2 groups (hereinafter sometimes referred to as Group M) and the remaining 2 groups (hereinafter sometimes referred to as Group G) received orally a 0.5% methylcellulose suspension and glibenclamide (10 mg/kg bodyweight) respectively, for 4 weeks. After repeated administration for 4 weeks, one Group M and one Group G (control groups) received orally a 0.5% methylcellulose suspension and the other Group M and the other Group G received orally glibenclamide (10 mg/kg bodyweight).
Then, each rat received orally 1 g/kg bodyweight of glucose solution. Before administration of glucose solution and 10 and 60 minutes after the administration, blood samples were taken from the caudal vein of the rat and then the plasma glucose level and the plasma insulin level were determined.
The plasma glucose level and the plasma insulin level were determined in the same manner as in Experimental Example 1.
The increment of plasma glucose level 60 minutes after administration of glucose solution (from 0 to 60 minutes after sugar loading) and the increment of plasma insulin level 10 minutes after administration of glucose solution (from 0 to 60 minutes after sugar loading) are shown in Table 4 and Table 5, respectively. The values in the tables are mean values (n=6).

[3] = 10 minutes after oral glucose 1 g/kg (from before administration of the test compound to 10 min after sugar loading), oral glibenclamide 10 mg/kg, nateglinide 50 mg/kg, Compound A 3 mg/kg, mean, n=6
[4] = Group G (glibenclamide 10 mg/kg for 4 weeks)
[5] = Group M (0.5% methylcellulose for 4 weeks)

SMILES	Increment of plasma insulin level [1, 3]	plasma glucose level-lowering effect (in words) [1]	plasma insulin level-elevating effect (in words) [1]	Increment of plasma insulin level [2, 4]	Increment of plasma glucose level [2, 4]	plasma glucose level-lowering effect (in words) ([2]; Group G)	plasma insulin level-elevating effect (in words) ([2]; Group G)	Increment of plasma insulin level [2, 5]	Increment of plasma glucose level [2, 5]	plasma glucose level-lowering effect (in words) ([2]; Group M)	plasma insulin level-elevating effect (in words) ([2]; Group M)	Increment of plasma insulin level ([1]; 10 minutes after oral glucose 1 g/kg (from 0 to 60 minutes after sugar loading), oral glibenclamide 10 mg/kg, nateglinide 50 mg/kg, Compound A 3 mg/kg, mean, n=6)	Increment of plasma glucose level ([1]; 60 minutes after oral glucose 1 g/kg (0 to 60 min after sugar loading), rats pretreated with glibenclamide 10 mg/kg/day for 4 weeks, oral glibenclamide 10 mg/kg, nateglinide 50 mg/kg, Compound A 3 mg/kg, mean, n=6)
COc1ccc(Cl)cc1C(=O)NCCc1ccc(S(=O)(=O)NC(=O)NC2CCCCC2)cc1 [glibenclamide]	18.03 μU/ml	no plasma glucose level-lowering effect	hardly plasma insulin level-elevating effect	22.76 μU/ml	180.65 mg/dL	the effect was not shown	the effect was not shown	49.70 μU/ml	51.72 mg/dL	showed plasma glucose level-lowering effect	showed plasma insulin level-elevating effect		
CC(C)[C@H]1CC[C@H](C(=O)N[C@H](Cc2ccccc2)C(=O)O)CC1 [nateglinide]	18.76 μU/ml	no plasma glucose level-lowering effect	hardly plasma insulin level-elevating effect									16.78 μU/ml	185.95 mg/dL
